Biological target: T1, RANTES/MIP-1α chemokine receptor (CCR1) in THP-1 cell membranes (Homo sapiens, UniProt P32246)
T1 construct: Membranes were prepared from THP-1 cells (ATCC #TIB202); host or cells: THP-1 cells (membrane preparation)
T1 sequence (P32246 1-355): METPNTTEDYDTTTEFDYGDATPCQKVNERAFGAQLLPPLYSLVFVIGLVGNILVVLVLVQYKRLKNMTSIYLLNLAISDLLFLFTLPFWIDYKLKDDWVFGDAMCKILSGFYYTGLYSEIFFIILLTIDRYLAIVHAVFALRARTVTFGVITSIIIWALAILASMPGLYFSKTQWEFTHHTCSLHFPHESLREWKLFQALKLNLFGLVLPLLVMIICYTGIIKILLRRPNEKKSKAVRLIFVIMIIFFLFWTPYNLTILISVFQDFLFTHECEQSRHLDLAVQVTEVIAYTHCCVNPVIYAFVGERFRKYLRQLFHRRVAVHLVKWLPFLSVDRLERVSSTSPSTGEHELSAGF
Test: Receptor binding assay: 125I-RANTES or 125I-MIP-1α binding to THP-1 cell membranes
Conditions: inhibitor concentration required for 50% inhibition of specific binding; 125I-RANTES or 125I-MIP-1α as ligand, THP-1 cell membranes; read-out: IC50

Row | Compound | IC50
1 | CC(C)(O)c1ccc2c(c1)C(=CCCN1CCC(N(CCO)Cc3ccc(Cl)cc3)C1)c1cccnc1CO2 (stereo not drawn) [Example 554, 2-[5-(3-{3-[(4-Chloro-benzyl)-(2-hydroxy-ethyl)-amino]-pyrrolidin-1-yl}-propylidene)-5,11-dihydro-10-oxa-1-aza-dibenzo[a,d]cyclohepten-7-yl]-propan-2-ol] | < 1 µM
2 | COC(=O)CCN(Cc1ccc(Cl)cc1)C1CCN(CCC=C2c3cc(C(C)(C)O)ccc3OCc3ncccc32)C1 (stereo not drawn) [Example 555, 3-[(4-Chloro-benzyl)-(1-{3-[7-(1-hydroxy-1-methyl-ethyl)-11H-10-oxa-1-aza-dibenzo[a,d]cyclohepten-5-ylidene]-propyl}-pyrrolidin-3-yl)-amino]-propionic acid methyl ester] | < 1 µM
3 | C[C@H]1CN(CCC=C2c3cc(C(C)(C)O)ccc3OCc3ncccc32)CCN1c1ccc(Cl)cc1 [Example 556, 2-(5-{3-[4-(4-Chloro-phenyl)-3-(S)-methyl-piperazin-1-yl]-propylidene}-5,11-dihydro-10-oxa-1-aza-dibenzo[a,d]cyclohepten-7-yl)-propan-2-ol] | < 1 µM
4 | C[C@@H]1CN(CCC=C2c3cc(C(C)(C)O)ccc3OCc3ncccc32)CCN1c1ccc(Cl)cc1 [Example 557, 2-(5-{3-[4-(4-Chloro-phenyl)-3-(R)-methyl-piperazin-1-yl]-propylidene}-5,11-dihydro-10-oxa-1-aza-dibenzo[a,d]cyclohepten-7-yl)-propan-2-ol] | < 1 µM
5 | COC(=O)CC1CN(CCC=C2c3cc(C(C)(C)O)ccc3OCc3ncccc32)CCN1c1ccc(Cl)cc1 (stereo not drawn) [Example 558, (1-(4-Chloro-phenyl)-4-{3-[7-(1-hydroxy-1-methyl-ethyl)-11H-10-oxa-1-aza-dibenzo[a,d]cyclohepten-5-ylidene]-propyl}-piperazin-2-yl)-acetic acid methyl ester] | < 10 µM
6 | CC1(C)CN(CCC=C2c3cc(OCCN4CCOCC4)ccc3OCc3ncccc32)CCC1(O)c1ccc(Cl)cc1 (stereo not drawn) [Example 559, 4-(4-Chloro-phenyl)-3,3-dimethyl-1-{3-[7-(2-morpholin-4-yl-ethoxy)-11H-10-oxa-1-aza-dibenzo[a,d]cyclohepten-5-ylidene]-propyl}-piperidin-4-ol] | < 1 µM
7 | CC(=O)N(Cc1ccc(Cl)cc1)C1CCN(CCC=C2c3cc(C(C)(C)O)ccc3OCc3ncccc32)C1 (stereo not drawn) [Example 561, N-(4-Chloro-benzyl)-N-(1-{3-[7-(1-hydroxy-1-methyl-ethyl)-11H-10-oxa-1-aza-dibenzo[a,d]cyclohepten-5-ylidene]-propyl}-pyrrolidin-3-yl)-acetamide] | < 10 µM
8 | CC(C)C(=O)N(Cc1ccc(Cl)cc1)C1CCN(CCC=C2c3cc(C(C)(C)O)ccc3OCc3ncccc32)C1 (stereo not drawn) [Example 562, N-(4-Chloro-benzyl)-N-(1-{3-[7-(1-hydroxy-1-methyl-ethyl)-11H-10-oxa-1-aza-dibenzo[a,d]cyclohepten-5-ylidene]-propyl}-pyrrolidin-3-yl)-isobutyramide] | < 10 µM
9 | CCC(=O)N(Cc1ccc(Cl)cc1)C1CCN(CCC=C2c3cc(C(C)(C)O)ccc3OCc3ncccc32)C1 (stereo not drawn) [Example 563, N-(4-Chloro-benzyl)-N-(1-{3-[7-(1-hydroxy-1-methyl-ethyl)-11H-10-oxa-1-aza-dibenzo[a,d]cyclohepten-5-ylidene]-propyl}-pyrrolidin-3-yl)-propionamide] | < 10 µM
10 | CC(C)(O)c1ccc2c(c1)C(=CCCN1CCC(N(Cc3ccc(Cl)cc3)C(=O)C3CCCC3)C1)c1cccnc1CO2 (stereo not drawn) [Example 564, Cyclopentanecarboxylic acid (4-chloro-benzyl)-(1-{3-[7-(1-hydroxy-1-methyl-ethyl)-11H-10-oxa-1-aza-dibenzo[a,d]cyclohepten-5-ylidene]-propyl}-pyrrolidin-3-yl)-amide] | < 10 µM
11 | CC(C)(O)c1ccc2c(c1)C(=CCCN1CCC(N(Cc3ccc(Cl)cc3)C(=O)C3CCCCC3)C1)c1cccnc1CO2 (stereo not drawn) [Example 565, Cyclohexanecarboxylic acid (4-chloro-benzyl)-(1-{3-[7-(1-hydroxy-1-methyl-ethyl)-11H-10-oxa-1-aza-dibenzo[a,d]cyclohepten-5-ylidene]-propyl}-pyrrolidin-3-yl)-amide] | < 10 µM
12 | CCCCC(CC)C(=O)N(Cc1ccc(Cl)cc1)C1CCN(CCC=C2c3cc(C(C)(C)O)ccc3OCc3ncccc32)C1 (stereo not drawn) [Example 566, 2-Ethyl-hexanoic acid (4-chloro-benzyl)-(1-{3-[7-(1-hydroxy-1-methyl-ethyl)-11H-10-oxa-1-aza-dibenzo[a,d]cyclohepten-5-ylidene]-propyl}-pyrrolidin-3-yl)-amide] | < 20 µM
13 | CC(C)NC(=O)N(Cc1ccc(Cl)cc1)C1CCN(CCC=C2c3cc(C(C)(C)O)ccc3OCc3ncccc32)C1 (stereo not drawn) [Example 567, 1-(4-Chloro-benzyl)-1-(1-{3-[7-(1-hydroxy-1-methyl-ethyl)-11H-10-oxa-1-aza-dibenzo[a,d]cyclohepten-5-ylidene]-propyl}-pyrrolidin-3-yl)-3-isopropyl-urea] | < 1 µM
14 | CC(C)(O)c1ccc2c(c1)C(=CCCN1CCC(N(Cc3ccc(Cl)cc3)C(=O)NC3CCCCC3)C1)c1cccnc1CO2 (stereo not drawn) [Example 568, 1-(4-Chloro-benzyl)-3-cyclohexyl-1-(1-{3-[7-(1-hydroxy-1-methyl-ethyl)-11H-10-oxa-1-aza-dibenzo[a,d]cyclohepten-5-ylidene]-propyl}-pyrrolidin-3-yl)-urea] | < 1 µM
15 | CCNC(=O)N(Cc1ccc(Cl)cc1)C1CCN(CCC=C2c3cc(C(C)(C)O)ccc3OCc3ncccc32)C1 (stereo not drawn) [Example 569, 1-(4-Chloro-benzyl)-3-ethyl-1-(1-{3-[7-(1-hydroxy-1-methyl-ethyl)-11H-10-oxa-1-aza-dibenzo[a,d]cyclohepten-5-ylidene]-propyl}-pyrrolidin-3-yl)-urea] | < 1 µM
16 | CC(C)(C)CC(C)(C)NC(=O)N(Cc1ccc(Cl)cc1)C1CCN(CCC=C2c3cc(C(C)(C)O)ccc3OCc3ncccc32)C1 (stereo not drawn) [Example 570, 1-(4-Chloro-benzyl)-1-(1-{3-[7-(1-hydroxy-1-methyl-ethyl)-11H-10-oxa-1-aza-dibenzo[a,d]cyclohepten-5-ylidene]-propyl}-pyrrolidin-3-yl)-3-(1,1,3,3-tetramethyl-butyl)-urea] | < 10 µM
17 | CC(C)(O)c1ccc2c(c1)C(=CCCN1CCC(N(Cc3ccc(Cl)cc3)S(C)(=O)=O)C1)c1cccnc1CO2 (stereo not drawn) [Example 571, N-(4-Chloro-benzyl)-N-(1-{3-[7-(1-hydroxy-1-methyl-ethyl)-11H-10-oxa-1-aza-dibenzo[a,d]cyclohepten-5-ylidene]-propyl}-pyrrolidin-3-yl)-methanesulfonamide] | < 10 µM
18 | Methyl 1-[3-(5,11-dihydro-7-methoxy[1]benzoxepino[2,3-b]pyridin-5-ylidene)propyl]-4-phenylpiperidin-4-carboxylate [Example 188] | > 10 µM

— patent publication US8653096B2, “Chemokine receptor antagonists and methods of use thereof” (Millennium Pharmaceuticals, Inc., priority 2001, dated 2014)
